Results as given in patent publication US10370425B2, “Peptide antagonists of the calcitonin CGRP family of peptide hormones and their use” (priority 2012, dated 2019).
Positions of bridges follow the written chain, without caps; N, C: chain ends. Residues, ends and D or L forms follow the SMILES beside them.

Target: T1, amylin receptor, AMY1, a CT (calcitonin) receptor/RAMP1 (receptor-activity modifying protein) complex (Homo sapiens, UniProt O60894+P30988)
T1 construct: host or cells: CHO-K1/AMY1/Gα15
Assay: Calcium flux assay (FLIPR Calcium 4) of inhibition of α-CGRP stimulation in CHO-K1/AMY1/Gα15 cells
Type: cell-based
Conditions: at maximal test concentration (series starts with 1 μM); CHO-K1/AMY1/Gα15 cells stimulated with 32 nM (EC80) α-CGRP; n = 2; read-out: % Inhibition @ Maximal concentration (Mean +/− SD, n = 2)
Protocol: Using a calcium flux assay, the dose-dependent inhibitory response of peptide antagonists of the present invention on an amylin receptor, AMY1, a CT (calcitonin) receptor/RAMP1 (receptor-activity modifying protein) complex was determined. The recombinant cell line CHO-K1/AMY1/Gα15 (GenScript, Piscataway, N.J., Catalog No. M00475) was employed in the assay. Peptide antagonist activities were tested, in duplicate, at five different concentrations, starting with 1 μM and serially diluted five-fold, in DMSO. AC187 (SEQ ID NO: 55), a known amylin receptor antagonist (available for example from Tocris Bioscience, Minneapolis, Minn., Catalog No. 3419) was used as a positive control in the assays, and human α-CGRP, a known amylin receptor agonist (SEQ ID NO:56) , (available for example from Tocris Bioscience, Minneapolis, Minn., Catalog No. 3012) was used as a positive control in the assays. The FLIPR® Calcium 4 Assay Kit (Molecular Devices, Sunnyvale, Calif.) was used.
Human α-CGRP having the amino acid sequence, NH2-[…]-NH2 (SEQ ID NO:56) and AC187 having the sequence […] (SEQ ID NO: 55) were employed as negative and positive controls, respectively. Stock solutions were further diluted in HBSS-HEPES buffer to make 5×final control solutions.
CHO-K1/AMY1/Gα15 cells were seeded in a 384-well black wall, clear bottom plate at a density of 20,000 cells/well in 20 μL of growth medium 20 hours prior to the day of the experiment and maintained at 37° C./5% CO2.
Per the assay kit protocol, dye-loading solution (at 2×final concentration) was added into the assay plate, 20 μL per well. Compound solution (at 5 ×final concentration) was added into the assay plate, 10 uL per well. The assay plate was placed into a 37° C. incubator for 1 hour, then left for 15 min at RT. The agonist plate (at 5×EC80 concentration) was placed in Source 2. The total reading time was 120 sec. The agonist was added after 20 seconds reading of the baseline and the fluorescence signal was captured for another 100 seconds (21 s to 120 s).
In screening, cells stimulated with assay buffer were chosen as the background; cells stimulated with agonist (at […] concentration) were chosen as the negative control.
Data were recorded by ScreenWorks (version 3.1) as FMD files and stored on the GenScript computer network for off-line analysis. Data acquisition and analyses was performed using ScreenWorks (version 3.1) program and exported to Excel. The average value of 20 (1 s to 20 s) seconds reading was calculated as the baseline reading and the relative fluorescent units (ΔRFU) intensity values were calculated with the maximal fluorescent units (21 s to 120 s) subtracting the average value of baseline reading.
The IC50 value of AC187 was 8 μM. The inhibitory activity of the tested peptide antagonists was normalized with the negative control (AC187) and reported as % Inhibition, calculated from the following equation: % Inhibition=(ΔRFUcompound−ΔRFUBackground)/(ΔRFUNegative control−ΔRFUBackground) * 100% Inhibition was then plotted along the Y-axis, with the test concentrations as indicated on the X-axis. The peptides were tested at indicated concentrations and stimulated with 32 nM (EC80) α-CGRP (Mean +/− SD, n=2).

T1 sequence (P30988 25-474): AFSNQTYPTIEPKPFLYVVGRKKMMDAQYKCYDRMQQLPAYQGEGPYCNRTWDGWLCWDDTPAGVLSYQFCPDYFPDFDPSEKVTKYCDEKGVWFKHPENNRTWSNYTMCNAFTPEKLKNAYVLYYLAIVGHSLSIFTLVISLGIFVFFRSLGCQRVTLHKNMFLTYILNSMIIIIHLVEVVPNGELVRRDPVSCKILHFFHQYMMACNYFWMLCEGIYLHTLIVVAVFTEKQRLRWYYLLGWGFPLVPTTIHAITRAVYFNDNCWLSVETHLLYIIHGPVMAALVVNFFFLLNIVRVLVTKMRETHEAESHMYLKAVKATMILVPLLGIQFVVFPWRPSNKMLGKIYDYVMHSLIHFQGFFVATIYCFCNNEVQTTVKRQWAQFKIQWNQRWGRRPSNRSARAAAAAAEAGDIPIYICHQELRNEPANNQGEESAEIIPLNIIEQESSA
T1 sequence (O60894 27-148): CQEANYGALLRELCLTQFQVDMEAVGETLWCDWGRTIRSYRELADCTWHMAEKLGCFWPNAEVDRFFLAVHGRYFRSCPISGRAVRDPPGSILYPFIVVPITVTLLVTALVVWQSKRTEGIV

Row | Compound | inhibition at 1 µM [%]
1 | CC(C)C[C@H](NC(=O)[C@H](CCCNC(=N)N)NC(=O)CNC(=O)[C@H](CC(C)C)NC(=O)[C@@H](NC(=O)[C@@H]1CSSC[C@H](NC(=O)[C@H](C)N)C(=O)N[C@@H](CC(=O)O)C(=O)N[C@@H]([C@@H](C)O)C(=O)N[C@@H](C)C(=O)N[C@@H](C)C(=O)N1)C(C)C)C(=O)N[C@@H](CO)C(=O)N[C@@H](CCC(N)=O)C(=O)N[C@@H](CCC(=O)O)C(=O)N[C@@H](CC(C)C)C(=O)N[C@@H](Cc1c[nH]cn1)C(=O)N[C@@H](CCCNC(=N)N)C(=O)N[C@@H](CC(C)C)C(=O)N[C@@H](CCC(N)=O)C(=O)N[C@H](C(=O)N[C@@H](Cc1ccc(O)cc1)C(=O)N1CCC[C@H]1C(=O)N[C@@H](CCCNC(=N)N)C(=O)N[C@H](C(=O)N[C@@H](CC(N)=O)C(=O)N[C@H](C(=O)NCC(=O)N[C@@H](CO)C(=O)N[C@@H](CCCCN)C(=O)N[C@@H](C)C(=O)N[C@@H](Cc1ccccc1)C(N)=O)C(C)C)[C@@H](C)O)[C@@H](C)O [compound 1] (H-ACDTAACVLGRLSQELHRLQTYPRTNVGSKAF-NH2; disulfide 2-7 (inferred)) | 94.4
2 | CC(C)C[C@H](NC(=O)[C@H](CCCNC(=N)N)NC(=O)CNC(=O)[C@H](CC(C)C)NC(=O)[C@@H](NC(=O)[C@@H]1CSSC[C@H](NC(=O)[C@H](C)N)C(=O)N[C@@H](CC(=O)O)C(=O)N[C@@H]([C@@H](C)O)C(=O)N[C@@H](C)C(=O)N[C@@H](CO)C(=O)N1)C(C)C)C(=O)N[C@@H](CO)C(=O)N[C@@H](CCC(N)=O)C(=O)N[C@@H](CCC(=O)O)C(=O)N[C@@H](CC(C)C)C(=O)N[C@@H](Cc1c[nH]cn1)C(=O)N[C@@H](CCCNC(=N)N)C(=O)N[C@@H](CC(C)C)C(=O)N[C@@H](CCC(N)=O)C(=O)N[C@H](C(=O)N[C@@H](Cc1ccc(O)cc1)C(=O)N1CCC[C@H]1C(=O)N[C@@H](CCCNC(=N)N)C(=O)N[C@H](C(=O)N[C@@H](CC(N)=O)C(=O)N[C@H](C(=O)NCC(=O)N[C@@H](CO)C(=O)N[C@@H](CCCCN)C(=O)N[C@@H](C)C(=O)N[C@@H](Cc1ccccc1)C(N)=O)C(C)C)[C@@H](C)O)[C@@H](C)O [compound 2] (H-ACDTASCVLGRLSQELHRLQTYPRTNVGSKAF-NH2; disulfide 2-7 (inferred)) | 96.5
3 | CC(C)C[C@H](NC(=O)[C@H](CCCNC(=N)N)NC(=O)CNC(=O)[C@H](CC(C)C)NC(=O)[C@@H](NC(=O)[C@@H]1CSSC[C@H](NC(=O)[C@H](C)N)C(=O)N[C@@H](CC(=O)O)C(=O)N[C@@H]([C@@H](C)O)C(=O)N[C@@H](C)C(=O)N[C@@H](C(C)C)C(=O)N1)C(C)C)C(=O)N[C@@H](CO)C(=O)N[C@@H](CCC(N)=O)C(=O)N[C@@H](CCC(=O)O)C(=O)N[C@@H](CC(C)C)C(=O)N[C@@H](Cc1c[nH]cn1)C(=O)N[C@@H](CCCNC(=N)N)C(=O)N[C@@H](CC(C)C)C(=O)N[C@@H](CCC(N)=O)C(=O)N[C@H](C(=O)N[C@@H](Cc1ccc(O)cc1)C(=O)N1CCC[C@H]1C(=O)N[C@@H](CCCNC(=N)N)C(=O)N[C@H](C(=O)N[C@@H](CC(N)=O)C(=O)N[C@H](C(=O)NCC(=O)N[C@@H](CO)C(=O)N[C@@H](CCCCN)C(=O)N[C@@H](C)C(=O)N[C@@H](Cc1ccccc1)C(N)=O)C(C)C)[C@@H](C)O)[C@@H](C)O [compound 3] (H-ACDTAVCVLGRLSQELHRLQTYPRTNVGSKAF-NH2; disulfide 2-7 (inferred)) | 95.9
4 | CC(C)C[C@H](NC(=O)[C@H](CCCNC(=N)N)NC(=O)CNC(=O)[C@H](CC(C)C)NC(=O)[C@@H](NC(=O)[C@@H]1CSSC[C@H](NC(=O)[C@H](C)N)C(=O)N[C@@H](CC(N)=O)C(=O)N[C@@H]([C@@H](C)O)C(=O)N[C@@H](C)C(=O)N[C@@H](C)C(=O)N1)C(C)C)C(=O)N[C@@H](CO)C(=O)N[C@@H](CCC(N)=O)C(=O)N[C@@H](CCC(=O)O)C(=O)N[C@@H](CC(C)C)C(=O)N[C@@H](Cc1c[nH]cn1)C(=O)N[C@@H](CCCNC(=N)N)C(=O)N[C@@H](CC(C)C)C(=O)N[C@@H](CCC(N)=O)C(=O)N[C@H](C(=O)N[C@@H](Cc1ccc(O)cc1)C(=O)N1CCC[C@H]1C(=O)N[C@@H](CCCNC(=N)N)C(=O)N[C@H](C(=O)N[C@@H](CC(N)=O)C(=O)N[C@H](C(=O)NCC(=O)N[C@@H](CO)C(=O)N[C@@H](CCCCN)C(=O)N[C@@H](C)C(=O)N[C@@H](Cc1ccccc1)C(N)=O)C(C)C)[C@@H](C)O)[C@@H](C)O [compound 4] (H-ACNTAACVLGRLSQELHRLQTYPRTNVGSKAF-NH2; disulfide 2-7 (inferred)) | 94.6
5 | CC(C)C[C@H](NC(=O)[C@H](CCCNC(=N)N)NC(=O)CNC(=O)[C@H](CC(C)C)NC(=O)[C@@H](NC(=O)[C@@H]1CSSC[C@H](NC(=O)[C@H](C)N)C(=O)N[C@@H](C(C)C)C(=O)N[C@@H](CC(C)C)C(=O)NCC(=O)N[C@@H](C)C(=O)N1)C(C)C)C(=O)N[C@@H](CO)C(=O)N[C@@H](CCC(N)=O)C(=O)N[C@@H](CCC(=O)O)C(=O)N[C@@H](CC(C)C)C(=O)N[C@@H](Cc1c[nH]cn1)C(=O)N[C@@H](CCCNC(=N)N)C(=O)N[C@@H](CC(C)C)C(=O)N[C@@H](CCC(N)=O)C(=O)N[C@H](C(=O)N[C@@H](Cc1ccc(O)cc1)C(=O)N1CCC[C@H]1C(=O)N[C@@H](CCCNC(=N)N)C(=O)N[C@H](C(=O)N[C@@H](CC(N)=O)C(=O)N[C@H](C(=O)NCC(=O)N[C@@H](CO)C(=O)N[C@@H](CCCCN)C(=O)N[C@@H](C)C(=O)N[C@@H](Cc1ccccc1)C(N)=O)C(C)C)[C@@H](C)O)[C@@H](C)O [compound 5] (H-ACVLGACVLGRLSQELHRLQTYPRTNVGSKAF-NH2; disulfide 2-7 (inferred)) | 88.5
6 | CC(C)C[C@H](NC(=O)[C@H](CCCNC(=N)N)NC(=O)CNC(=O)[C@H](CC(C)C)NC(=O)[C@@H](NC(=O)[C@@H]1CSSC[C@H](NC(=O)[C@H](C)N)C(=O)N[C@@H](CCCNC(=N)N)C(=O)N[C@@H](Cc2ccccc2)C(=O)NCC(=O)N[C@@H](C)C(=O)N1)C(C)C)C(=O)N[C@@H](CO)C(=O)N[C@@H](CCC(N)=O)C(=O)N[C@@H](CCC(=O)O)C(=O)N[C@@H](CC(C)C)C(=O)N[C@@H](Cc1c[nH]cn1)C(=O)N[C@@H](CCCNC(=N)N)C(=O)N[C@@H](CC(C)C)C(=O)N[C@@H](CCC(N)=O)C(=O)N[C@H](C(=O)N[C@@H](Cc1ccc(O)cc1)C(=O)N1CCC[C@H]1C(=O)N[C@@H](CCCNC(=N)N)C(=O)N[C@H](C(=O)N[C@@H](CC(N)=O)C(=O)N[C@H](C(=O)NCC(=O)N[C@@H](CO)C(=O)N[C@@H](CCCCN)C(=O)N[C@@H](C)C(=O)N[C@@H](Cc1ccccc1)C(N)=O)C(C)C)[C@@H](C)O)[C@@H](C)O [compound 6] (H-ACRFGACVLGRLSQELHRLQTYPRTNVGSKAF-NH2; disulfide 2-7 (inferred)) | 93.9
7 | CC(C)C[C@H](NC(=O)[C@H](CCCNC(=N)N)NC(=O)CNC(=O)[C@H](CC(C)C)NC(=O)[C@@H](NC(=O)[C@@H]1CSSC[C@H](NC(=O)[C@H](C)N)C(=O)N[C@@H](CC(N)=O)C(=O)N[C@@H](CC(C)C)C(=O)N[C@@H](CO)C(=O)N[C@@H](C)C(=O)N1)C(C)C)C(=O)N[C@@H](CO)C(=O)N[C@@H](CCC(N)=O)C(=O)N[C@@H](CCC(=O)O)C(=O)N[C@@H](CC(C)C)C(=O)N[C@@H](Cc1c[nH]cn1)C(=O)N[C@@H](CCCNC(=N)N)C(=O)N[C@@H](CC(C)C)C(=O)N[C@@H](CCC(N)=O)C(=O)N[C@H](C(=O)N[C@@H](Cc1ccc(O)cc1)C(=O)N1CCC[C@H]1C(=O)N[C@@H](CCCNC(=N)N)C(=O)N[C@H](C(=O)N[C@@H](CC(N)=O)C(=O)N[C@H](C(=O)NCC(=O)N[C@@H](CO)C(=O)N[C@@H](CCCCN)C(=O)N[C@@H](C)C(=O)N[C@@H](Cc1ccccc1)C(N)=O)C(C)C)[C@@H](C)O)[C@@H](C)O [compound 7] (H-ACNLSACVLGRLSQELHRLQTYPRTNVGSKAF-NH2; disulfide 2-7 (inferred)) | 96
